HELM strings list units from the 5' end as sugar, base in round brackets, then linkage (d deoxyribose, r ribose, m 2'-O-methyl, p phosphodiester). Strings are as the collection lists them; they lack the last nucleoside at the 3' end of the tested compound. [moe] = 2'-O-(2-methoxyethyl) (MOE); [sp] = phosphorothioate linkage; [m5C] = 5-methylcytosine
Target: SMN2
Test: mouse, dose not given
Details: ASO

Substance | 3 h FOB score [score 0-7]
RNA1{[moe]([m5C])[sp].[moe](A)[sp].[moe]([m5C])[sp].[moe](T)[sp].[moe](T)p.[moe](T)[sp].[moe]([m5C])[sp].[moe](A)[sp].[moe](T)[sp].[moe](A)[sp].[moe](A)[sp].[moe](T)[sp].[moe](G)[sp].[moe]([m5C])[sp].[moe](T)p.[moe](G)[sp].[moe](G)}$$$$ (last 3' nucleoside missing) | 0
RNA1{[moe]([m5C])[sp].[moe](A)[sp].[moe]([m5C])[sp].[moe](T)[sp].[moe](T)p.[moe](T)p.[moe]([m5C])p.[moe](A)p.[moe](T)[sp].[moe](A)[sp].[moe](A)[sp].[moe](T)[sp].[moe](G)[sp].[moe]([m5C])[sp].[moe](T)[sp].[moe](G)[sp].[moe](G)}$$$$ (last 3' nucleoside missing) | 0
RNA1{[moe]([m5C])[sp].[moe](A)[sp].[moe]([m5C])[sp].[moe](T)p.[moe](T)p.[moe](T)[sp].[moe]([m5C])[sp].[moe](A)[sp].[moe](T)[sp].[moe](A)[sp].[moe](A)[sp].[moe](T)[sp].[moe](G)[sp].[moe]([m5C])[sp].[moe](T)[sp].[moe](G)[sp].[moe](G)}$$$$ (last 3' nucleoside missing) | 0
RNA1{[moe]([m5C])[sp].[moe](A)[sp].[moe]([m5C])p.[moe](T)[sp].[moe](T)[sp].[moe](T)[sp].[moe]([m5C])[sp].[moe](A)[sp].[moe](T)[sp].[moe](A)[sp].[moe](A)[sp].[moe](T)[sp].[moe](G)[sp].[moe]([m5C])[sp].[moe](T)[sp].[moe](G)[sp].[moe](G)}$$$$ (last 3' nucleoside missing) | 1
RNA1{[moe]([m5C])[sp].[moe](A)[sp].[moe]([m5C])p.[moe](T)[sp].[moe](T)[sp].[moe](T)[sp].[moe]([m5C])[sp].[moe](A)[sp].[moe](T)[sp].[moe](A)[sp].[moe](A)[sp].[moe](T)[sp].[moe](G)[sp].[moe]([m5C])[sp].[moe](T)p.[moe](G)[sp].[moe](G)}$$$$ (last 3' nucleoside missing) | 0
RNA1{[moe]([m5C])[sp].[moe](A)[sp].[moe]([m5C])p.[moe](T)[sp].[moe](T)[sp].[moe](T)[sp].[moe]([m5C])[sp].[moe](A)[sp].[moe](T)p.[moe](A)[sp].[moe](A)[sp].[moe](T)[sp].[moe](G)[sp].[moe]([m5C])[sp].[moe](T)p.[moe](G)[sp].[moe](G)}$$$$ (last 3' nucleoside missing) | 0
RNA1{[moe]([m5C])[sp].[moe](A)[sp].[moe]([m5C])p.[moe](T)p.[moe](T)p.[moe](T)p.[moe]([m5C])[sp].[moe](A)[sp].[moe](T)[sp].[moe](A)[sp].[moe](A)[sp].[moe](T)[sp].[moe](G)[sp].[moe]([m5C])[sp].[moe](T)[sp].[moe](G)[sp].[moe](G)}$$$$ (last 3' nucleoside missing) | 0
RNA1{[moe]([m5C])[sp].[moe](A)p.[moe]([m5C])[sp].[moe](T)[sp].[moe](T)[sp].[moe](T)[sp].[moe]([m5C])[sp].[moe](A)[sp].[moe](T)[sp].[moe](A)[sp].[moe](A)[sp].[moe](T)[sp].[moe](G)[sp].[moe]([m5C])[sp].[moe](T)p.[moe](G)[sp].[moe](G)}$$$$ (last 3' nucleoside missing) | 0
RNA1{[moe]([m5C])[sp].[moe](A)p.[moe]([m5C])[sp].[moe](T)[sp].[moe](T)[sp].[moe](T)[sp].[moe]([m5C])[sp].[moe](A)[sp].[moe](T)[sp].[moe](A)[sp].[moe](A)[sp].[moe](T)p.[moe](G)[sp].[moe]([m5C])[sp].[moe](T)[sp].[moe](G)[sp].[moe](G)}$$$$ (last 3' nucleoside missing) | 0
RNA1{[moe]([m5C])[sp].[moe](A)p.[moe]([m5C])[sp].[moe](T)[sp].[moe](T)[sp].[moe](T)[sp].[moe]([m5C])[sp].[moe](A)[sp].[moe](T)[sp].[moe](A)p.[moe](A)[sp].[moe](T)[sp].[moe](G)[sp].[moe]([m5C])[sp].[moe](T)[sp].[moe](G)[sp].[moe](G)}$$$$ (last 3' nucleoside missing) | 0
RNA1{[moe]([m5C])[sp].[moe](A)p.[moe]([m5C])[sp].[moe](T)[sp].[moe](T)[sp].[moe](T)[sp].[moe]([m5C])[sp].[moe](A)p.[moe](T)[sp].[moe](A)[sp].[moe](A)[sp].[moe](T)[sp].[moe](G)[sp].[moe]([m5C])[sp].[moe](T)[sp].[moe](G)[sp].[moe](G)}$$$$ (last 3' nucleoside missing) | 1
RNA1{[moe]([m5C])[sp].[moe](A)p.[moe]([m5C])[sp].[moe](T)[sp].[moe](T)[sp].[moe](T)p.[moe]([m5C])[sp].[moe](A)[sp].[moe](T)[sp].[moe](A)[sp].[moe](A)[sp].[moe](T)[sp].[moe](G)[sp].[moe]([m5C])[sp].[moe](T)[sp].[moe](G)[sp].[moe](G)}$$$$ (last 3' nucleoside missing) | 0
RNA1{[moe]([m5C])[sp].[moe](A)p.[moe]([m5C])[sp].[moe](T)p.[moe](T)[sp].[moe](T)[sp].[moe]([m5C])[sp].[moe](A)[sp].[moe](T)[sp].[moe](A)[sp].[moe](A)[sp].[moe](T)[sp].[moe](G)[sp].[moe]([m5C])[sp].[moe](T)[sp].[moe](G)[sp].[moe](G)}$$$$ (last 3' nucleoside missing) | 0
RNA1{[moe]([m5C])[sp].[moe](A)p.[moe]([m5C])p.[moe](T)[sp].[moe](T)[sp].[moe](T)[sp].[moe]([m5C])[sp].[moe](A)[sp].[moe](T)[sp].[moe](A)[sp].[moe](A)[sp].[moe](T)[sp].[moe](G)[sp].[moe]([m5C])[sp].[moe](T)[sp].[moe](G)[sp].[moe](G)}$$$$ (last 3' nucleoside missing) | 0
RNA1{[moe]([m5C])[sp].[moe](A)p.[moe]([m5C])p.[moe](T)[sp].[moe](T)[sp].[moe](T)[sp].[moe]([m5C])[sp].[moe](A)[sp].[moe](T)[sp].[moe](A)[sp].[moe](A)[sp].[moe](T)[sp].[moe](G)[sp].[moe]([m5C])p.[moe](T)p.[moe](G)[sp].[moe](G)}$$$$ (last 3' nucleoside missing) | 0
RNA1{[moe]([m5C])[sp].[moe](A)p.[moe]([m5C])p.[moe](T)p.[moe](T)[sp].[moe](T)[sp].[moe]([m5C])[sp].[moe](A)[sp].[moe](T)[sp].[moe](A)[sp].[moe](A)[sp].[moe](T)[sp].[moe](G)[sp].[moe]([m5C])p.[moe](T)p.[moe](G)[sp].[moe](G)}$$$$ (last 3' nucleoside missing) | 0
RNA1{[moe]([m5C])[sp].[moe](A)p.[moe]([m5C])p.[moe](T)p.[moe](T)[sp].[moe](T)[sp].[moe]([m5C])[sp].[moe](A)[sp].[moe](T)[sp].[moe](A)[sp].[moe](A)[sp].[moe](T)[sp].[moe](G)p.[moe]([m5C])p.[moe](T)p.[moe](G)[sp].[moe](G)}$$$$ (last 3' nucleoside missing) | 0
